Results reported in publication doi:10.1101/2020.08.04.236877v1 (biorxiv, 2020).

What was measured:
[1] = target: Transporter, Norepinephrine (NET) (Homo sapiens, UniProt P23975); test: radioligand binding assay; conditions: read-out: % inhibition at 10 μM
Histamine H2 = Histamine H2 (Homo sapiens, UniProt P25021); test: radioligand binding assay; conditions: read-out: % inhibition or stimulation at 10 μM
Androgen (Testosterone) = Androgen (Testosterone) (Homo sapiens, UniProt P10275); test: radioligand binding assay; conditions: read-out: % inhibition at 10 μM
[2] = target: Transporter, Dopamine (DAT) (Homo sapiens, UniProt Q01959); test: radioligand binding assay; conditions: read-out: % inhibition at 10 μM
Serotonin 5-HT2B = Serotonin 5-HT2B (Homo sapiens, UniProt P41595); test: radioligand binding assay; conditions: read-out: % inhibition at 10 μM
[3] = target: Platelet Activating Factor (PAF) (Homo sapiens, UniProt P25105); test: biochemical; conditions: read-out: % inhibition or stimulation (human)
[4] = target: Epidermal Growth Factor (EGF) (Homo sapiens, UniProt P00533); test: biochemical; conditions: read-out: % inhibition or stimulation (human)
Glucocorticoid = Glucocorticoid (Homo sapiens, UniProt P04150); test: biochemical; conditions: read-out: % inhibition or stimulation (human)
Adenosine A1 = Adenosine A1 (Homo sapiens, UniProt P30542); test: biochemical; conditions: read-out: % inhibition or stimulation (human)
Adenosine A2A = Adenosine A2A (Homo sapiens, UniProt P29274); test: biochemical; conditions: read-out: % inhibition or stimulation (human)
Adenosine A3 = Adenosine A3 (Homo sapiens, UniProt P0DMS8); test: biochemical; conditions: read-out: % inhibition or stimulation (human)
Adrenergic α1A = Adrenergic α1A (Homo sapiens, UniProt P35348); test: biochemical; conditions: read-out: % inhibition or stimulation (human)
Adrenergic α1B = Adrenergic α1B (Homo sapiens, UniProt P35368); test: biochemical; conditions: read-out: % inhibition or stimulation (human)
Adrenergic α1D = Adrenergic α1D (Homo sapiens, UniProt P25100); test: biochemical; conditions: read-out: % inhibition or stimulation (human)
Adrenergic α2A = Adrenergic α2A (Homo sapiens, UniProt P08913); test: biochemical; conditions: read-out: % inhibition or stimulation (human)
Adrenergic β1 = Adrenergic β1 (Homo sapiens, UniProt P08588); test: biochemical; conditions: read-out: % inhibition or stimulation (human)
Adrenergic β2 = Adrenergic β2 (Homo sapiens, UniProt P07550); test: biochemical; conditions: read-out: % inhibition or stimulation (human)
Bradykinin B1 = Bradykinin B1 (Homo sapiens, UniProt P46663); test: biochemical; conditions: read-out: % inhibition or stimulation (human)
Bradykinin B2 = Bradykinin B2 (Homo sapiens, UniProt P30411); test: biochemical; conditions: read-out: % inhibition or stimulation (human)
Cannabinoid CB1 = Cannabinoid CB1 (Homo sapiens, UniProt P21554); test: biochemical; conditions: read-out: % inhibition or stimulation (human)
Dopamine D1 = Dopamine D1 (Homo sapiens, UniProt P21728); test: biochemical; conditions: read-out: % inhibition or stimulation (human)
Dopamine D2S = Dopamine D2S (Homo sapiens, UniProt P14416); test: biochemical; conditions: read-out: % inhibition or stimulation (human)
Dopamine D3 = Dopamine D3 (Homo sapiens, UniProt P35462); test: biochemical; conditions: read-out: % inhibition or stimulation (human)
Dopamine D4.4 = Dopamine D4.4 (Homo sapiens, UniProt P21917); test: biochemical; conditions: read-out: % inhibition or stimulation (human)
Endothelin ETA = Endothelin ETA (Homo sapiens, UniProt P25101); test: biochemical; conditions: read-out: % inhibition or stimulation (human)
Endothelin ETB = Endothelin ETB (Homo sapiens, UniProt P24530); test: biochemical; conditions: read-out: % inhibition or stimulation (human)
Estrogen ERα = Estrogen ERα (Homo sapiens, UniProt P03372); test: biochemical; conditions: read-out: % inhibition or stimulation (human)
Histamine H1 = Histamine H1 (Homo sapiens, UniProt P35367); test: biochemical; conditions: read-out: % inhibition or stimulation (human)
Histamine H3 = Histamine H3 (Homo sapiens, UniProt Q9Y5N1); test: biochemical; conditions: read-out: % inhibition or stimulation (human)
Interleukin IL-1 R1 = Interleukin IL-1 R1 (Homo sapiens, UniProt P14778); test: biochemical; conditions: read-out: % inhibition or stimulation (human)
[5] = target: Leukotriene, Cysteinyl CysLT1 (Homo sapiens, UniProt Q9Y271); test: biochemical; conditions: read-out: % inhibition or stimulation (human)
Melatonin MT1 = Melatonin MT1 (Homo sapiens, UniProt P48039); test: biochemical; conditions: read-out: % inhibition or stimulation (human)
Muscarinic M1 = Muscarinic M1 (Homo sapiens, UniProt P11229); test: biochemical; conditions: read-out: % inhibition or stimulation (human)
Muscarinic M2 = Muscarinic M2 (Homo sapiens, UniProt P08172); test: biochemical; conditions: read-out: % inhibition or stimulation (human)
Muscarinic M3 = Muscarinic M3 (Homo sapiens, UniProt P20309); test: biochemical; conditions: read-out: % inhibition or stimulation (human)
Neuropeptide Y Y1 = Neuropeptide Y Y1 (Homo sapiens, UniProt P25929); test: biochemical; conditions: read-out: % inhibition or stimulation (human)
Neuropeptide Y Y2 = Neuropeptide Y Y2 (Homo sapiens, UniProt P49146); test: biochemical; conditions: read-out: % inhibition or stimulation (human)
[6] = target: Nicotinic Acetylcholine α1, Bungarotoxin (Homo sapiens, UniProt P02708); test: biochemical; conditions: read-out: % inhibition or stimulation (human)
[7] = target: Nicotinic Acetylcholine α3β4 (Homo sapiens, UniProt P30926+P32297); test: biochemical; conditions: read-out: % inhibition or stimulation (human)
Opiate µ (OP3, MOP) = Opiate µ (OP3, MOP) (Homo sapiens, UniProt P35372); test: biochemical; conditions: read-out: % inhibition or stimulation (human)
Opiate δ1 (OP1, DOP) = Opiate δ1 (OP1, DOP) (Homo sapiens, UniProt P41143); test: biochemical; conditions: read-out: % inhibition or stimulation (human)
Opiate κ (OP2, KOP) = Opiate κ (OP2, KOP) (Homo sapiens, UniProt P41145); test: biochemical; conditions: read-out: % inhibition or stimulation (human)
Potassium Channel hERG = Potassium Channel hERG (Homo sapiens, UniProt Q12809); test: in vitro
Prostanoid EP4 = Prostanoid EP4 (Homo sapiens, UniProt P35408); test: biochemical; conditions: read-out: % inhibition or stimulation (human)
[8] = target: Serotonin (5-Hydroxytryptamine) 5-HT1A (Homo sapiens, UniProt P08908); test: biochemical; conditions: read-out: % inhibition or stimulation (human)
[9] = target: Serotonin (5-Hydroxytryptamine) 5-HT3 (Homo sapiens, UniProt P46098); test: biochemical; conditions: read-out: % inhibition or stimulation (human)
Sigma σ1 = Sigma σ1 (Homo sapiens, UniProt Q99720); test: biochemical; conditions: read-out: % inhibition or stimulation (human)
Tachykinin NK1 = Tachykinin NK1 (Homo sapiens, UniProt P25103); test: biochemical; conditions: read-out: % inhibition or stimulation (human)
[10] = target: Transporter, Serotonin (5- Hydroxytryptamine) (SERT) (Homo sapiens, UniProt P31645); test: biochemical; conditions: read-out: % inhibition or stimulation (human)
Chain of Transporter, Serotonin (5- Hydroxytryptamine) (SERT) (P31645 whole entry): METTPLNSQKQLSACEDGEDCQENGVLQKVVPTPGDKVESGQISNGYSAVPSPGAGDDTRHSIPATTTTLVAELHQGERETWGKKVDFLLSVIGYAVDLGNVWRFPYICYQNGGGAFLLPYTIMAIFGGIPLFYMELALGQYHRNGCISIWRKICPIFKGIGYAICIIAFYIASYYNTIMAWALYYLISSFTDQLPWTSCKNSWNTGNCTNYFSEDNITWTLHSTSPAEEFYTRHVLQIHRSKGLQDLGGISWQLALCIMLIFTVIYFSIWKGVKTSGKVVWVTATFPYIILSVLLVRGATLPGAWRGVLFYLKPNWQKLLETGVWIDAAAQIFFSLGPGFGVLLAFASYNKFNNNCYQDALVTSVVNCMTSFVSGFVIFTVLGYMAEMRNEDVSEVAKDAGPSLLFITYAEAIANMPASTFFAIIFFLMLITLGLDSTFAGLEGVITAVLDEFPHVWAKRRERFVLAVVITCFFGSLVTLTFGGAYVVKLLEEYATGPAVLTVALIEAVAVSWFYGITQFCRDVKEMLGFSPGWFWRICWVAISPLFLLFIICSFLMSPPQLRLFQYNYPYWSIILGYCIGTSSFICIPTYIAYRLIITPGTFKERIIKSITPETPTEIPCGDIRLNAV

Chain of Adrenergic β2 (P07550 whole entry): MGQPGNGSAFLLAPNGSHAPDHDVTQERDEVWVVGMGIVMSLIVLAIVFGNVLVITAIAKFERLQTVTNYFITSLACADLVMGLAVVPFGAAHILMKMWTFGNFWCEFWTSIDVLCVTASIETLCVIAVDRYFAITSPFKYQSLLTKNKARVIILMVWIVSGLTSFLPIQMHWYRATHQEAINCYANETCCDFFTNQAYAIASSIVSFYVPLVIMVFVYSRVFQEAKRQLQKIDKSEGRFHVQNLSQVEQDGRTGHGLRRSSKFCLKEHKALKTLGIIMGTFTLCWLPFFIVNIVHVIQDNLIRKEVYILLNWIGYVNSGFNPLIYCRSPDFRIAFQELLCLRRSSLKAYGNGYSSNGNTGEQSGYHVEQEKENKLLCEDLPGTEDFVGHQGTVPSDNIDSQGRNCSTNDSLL
Chain of Serotonin (5-Hydroxytryptamine) 5-HT3 (P46098 whole entry): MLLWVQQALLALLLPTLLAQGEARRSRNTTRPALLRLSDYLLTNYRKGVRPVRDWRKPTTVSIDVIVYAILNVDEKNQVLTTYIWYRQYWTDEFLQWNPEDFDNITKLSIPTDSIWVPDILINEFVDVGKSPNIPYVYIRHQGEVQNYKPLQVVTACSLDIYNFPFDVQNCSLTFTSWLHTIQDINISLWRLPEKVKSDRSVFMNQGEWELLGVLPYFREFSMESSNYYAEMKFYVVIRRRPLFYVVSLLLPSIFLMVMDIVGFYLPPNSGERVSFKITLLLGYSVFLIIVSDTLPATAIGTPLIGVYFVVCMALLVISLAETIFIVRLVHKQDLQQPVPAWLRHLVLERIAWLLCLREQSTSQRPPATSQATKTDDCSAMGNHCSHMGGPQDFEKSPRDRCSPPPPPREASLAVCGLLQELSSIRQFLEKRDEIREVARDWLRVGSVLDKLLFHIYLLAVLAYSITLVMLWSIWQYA
Chain of Melatonin MT1 (P48039 whole entry): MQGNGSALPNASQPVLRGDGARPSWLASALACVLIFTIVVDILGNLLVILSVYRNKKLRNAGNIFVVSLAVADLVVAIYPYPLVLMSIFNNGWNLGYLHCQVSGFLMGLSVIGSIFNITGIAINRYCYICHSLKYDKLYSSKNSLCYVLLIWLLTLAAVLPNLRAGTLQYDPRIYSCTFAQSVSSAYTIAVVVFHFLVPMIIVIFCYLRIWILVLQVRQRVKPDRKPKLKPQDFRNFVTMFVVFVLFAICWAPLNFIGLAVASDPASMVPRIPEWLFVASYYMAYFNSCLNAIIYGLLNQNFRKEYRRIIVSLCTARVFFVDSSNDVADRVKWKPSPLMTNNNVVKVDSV
Chain of Neuropeptide Y Y1 (P25929 whole entry): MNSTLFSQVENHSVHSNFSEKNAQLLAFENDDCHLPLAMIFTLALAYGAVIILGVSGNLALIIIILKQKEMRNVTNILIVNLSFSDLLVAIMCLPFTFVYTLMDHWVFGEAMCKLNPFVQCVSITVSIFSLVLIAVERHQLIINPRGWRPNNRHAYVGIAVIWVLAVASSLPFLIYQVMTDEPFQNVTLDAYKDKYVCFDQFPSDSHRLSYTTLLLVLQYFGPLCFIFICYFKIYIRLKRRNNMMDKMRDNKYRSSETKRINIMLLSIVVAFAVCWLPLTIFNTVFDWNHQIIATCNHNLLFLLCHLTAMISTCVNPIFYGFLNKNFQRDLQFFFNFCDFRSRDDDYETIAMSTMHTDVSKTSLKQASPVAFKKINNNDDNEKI
Chain of Transporter, Dopamine (DAT) (Q01959 whole entry): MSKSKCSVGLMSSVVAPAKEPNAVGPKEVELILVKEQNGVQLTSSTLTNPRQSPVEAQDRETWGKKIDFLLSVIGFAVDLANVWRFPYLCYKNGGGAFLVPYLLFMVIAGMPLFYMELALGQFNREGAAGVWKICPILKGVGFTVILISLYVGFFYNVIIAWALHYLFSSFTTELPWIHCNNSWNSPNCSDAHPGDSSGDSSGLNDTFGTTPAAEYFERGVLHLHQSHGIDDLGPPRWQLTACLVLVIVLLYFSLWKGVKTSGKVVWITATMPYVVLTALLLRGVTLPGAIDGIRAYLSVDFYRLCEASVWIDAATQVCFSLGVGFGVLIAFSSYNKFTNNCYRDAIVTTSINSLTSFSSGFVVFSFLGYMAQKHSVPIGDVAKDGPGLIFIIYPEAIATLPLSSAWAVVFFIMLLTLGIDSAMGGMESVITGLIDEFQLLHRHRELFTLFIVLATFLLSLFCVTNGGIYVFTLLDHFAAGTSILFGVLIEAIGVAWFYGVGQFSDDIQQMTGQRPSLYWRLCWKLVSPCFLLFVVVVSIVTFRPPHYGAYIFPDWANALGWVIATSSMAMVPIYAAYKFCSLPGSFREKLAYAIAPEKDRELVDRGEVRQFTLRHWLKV
Chain of Muscarinic M3 (P20309 whole entry): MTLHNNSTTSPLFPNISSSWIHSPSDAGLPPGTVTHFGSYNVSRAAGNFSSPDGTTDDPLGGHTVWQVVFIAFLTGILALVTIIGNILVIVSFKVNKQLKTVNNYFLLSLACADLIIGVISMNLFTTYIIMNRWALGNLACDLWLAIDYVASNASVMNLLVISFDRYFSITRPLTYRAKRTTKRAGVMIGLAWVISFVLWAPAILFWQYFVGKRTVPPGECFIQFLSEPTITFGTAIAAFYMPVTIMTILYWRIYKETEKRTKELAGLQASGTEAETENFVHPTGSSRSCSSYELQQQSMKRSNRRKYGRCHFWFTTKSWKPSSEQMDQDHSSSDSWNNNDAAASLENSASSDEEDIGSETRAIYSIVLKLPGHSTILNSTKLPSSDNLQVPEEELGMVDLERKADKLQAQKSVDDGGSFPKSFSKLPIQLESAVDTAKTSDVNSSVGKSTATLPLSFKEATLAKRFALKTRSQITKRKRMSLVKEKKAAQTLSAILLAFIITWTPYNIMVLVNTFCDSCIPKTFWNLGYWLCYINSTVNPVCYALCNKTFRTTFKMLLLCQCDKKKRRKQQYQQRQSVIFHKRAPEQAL
Chain of Serotonin 5-HT2B (P41595 whole entry): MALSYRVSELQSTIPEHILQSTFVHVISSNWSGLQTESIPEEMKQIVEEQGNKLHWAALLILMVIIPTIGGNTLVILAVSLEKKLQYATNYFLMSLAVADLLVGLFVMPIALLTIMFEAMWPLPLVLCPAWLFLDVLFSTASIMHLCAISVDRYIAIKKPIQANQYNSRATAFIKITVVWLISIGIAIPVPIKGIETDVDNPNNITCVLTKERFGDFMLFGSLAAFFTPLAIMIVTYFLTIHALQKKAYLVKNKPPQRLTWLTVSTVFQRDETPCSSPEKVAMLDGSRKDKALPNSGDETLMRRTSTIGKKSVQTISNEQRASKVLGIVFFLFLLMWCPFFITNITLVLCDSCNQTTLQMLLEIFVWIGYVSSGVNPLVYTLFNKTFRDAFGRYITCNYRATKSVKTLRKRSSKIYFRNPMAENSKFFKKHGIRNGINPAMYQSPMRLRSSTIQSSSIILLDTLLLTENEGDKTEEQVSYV
Chain of Endothelin ETA (P25101 whole entry): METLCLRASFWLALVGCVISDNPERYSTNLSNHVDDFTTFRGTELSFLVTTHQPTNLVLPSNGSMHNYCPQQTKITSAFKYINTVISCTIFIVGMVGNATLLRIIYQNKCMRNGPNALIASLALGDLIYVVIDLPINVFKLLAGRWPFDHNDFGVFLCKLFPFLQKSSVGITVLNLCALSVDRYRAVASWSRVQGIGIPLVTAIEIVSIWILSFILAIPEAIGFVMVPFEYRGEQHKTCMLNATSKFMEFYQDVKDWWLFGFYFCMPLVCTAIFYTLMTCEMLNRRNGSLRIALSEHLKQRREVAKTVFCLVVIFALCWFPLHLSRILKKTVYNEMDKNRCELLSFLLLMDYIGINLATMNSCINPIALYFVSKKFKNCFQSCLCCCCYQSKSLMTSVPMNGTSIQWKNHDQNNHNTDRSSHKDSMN
Chain of Sigma σ1 (Q99720 whole entry): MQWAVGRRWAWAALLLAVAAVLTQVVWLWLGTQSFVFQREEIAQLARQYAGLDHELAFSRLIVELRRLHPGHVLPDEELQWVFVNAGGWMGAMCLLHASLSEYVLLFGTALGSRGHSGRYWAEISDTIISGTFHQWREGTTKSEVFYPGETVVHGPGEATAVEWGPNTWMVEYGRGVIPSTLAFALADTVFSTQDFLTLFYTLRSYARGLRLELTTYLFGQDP
Chain of Bradykinin B1 (P46663 whole entry): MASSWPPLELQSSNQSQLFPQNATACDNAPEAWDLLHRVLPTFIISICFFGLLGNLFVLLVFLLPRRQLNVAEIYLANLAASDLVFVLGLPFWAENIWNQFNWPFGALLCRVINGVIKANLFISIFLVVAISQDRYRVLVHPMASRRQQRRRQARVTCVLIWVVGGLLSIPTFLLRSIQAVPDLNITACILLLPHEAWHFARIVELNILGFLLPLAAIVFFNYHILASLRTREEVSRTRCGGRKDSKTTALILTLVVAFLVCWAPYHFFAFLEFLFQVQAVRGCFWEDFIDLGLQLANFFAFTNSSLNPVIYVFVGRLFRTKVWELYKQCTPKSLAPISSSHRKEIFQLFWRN

Molecule `CC(C)(C)c1ccc(C2=C(/C=N/O)CCC2)cc1` [8n, (E)-2-(4-(tert-butyl)phenyl)cyclopent-1-ene-1-carbaldehyde oxime] has an inhibition at 10 µM [1] of 75%, an inhibition at 10 µM (Histamine H2) of -54% and an inhibition at 10 µM (Androgen (Testosterone)) of 79%. For the same molecule, the inhibition at 10 µM [2] was 86%, the inhibition at 10 µM (Serotonin 5-HT2B) was 63% and the inhibition at 10 µM [3] was -14%. For the same molecule, the inhibition at 10 µM [4] was 2%, the inhibition at 10 µM (Glucocorticoid) was -4% and the inhibition at 10 µM (Adenosine A1) was 33%. The inhibition at 10 µM (Adenosine A2A) was 16%, the inhibition at 10 µM (Adenosine A3) was 45% and the inhibition at 10 µM (Adrenergic α1A) was 5%. The inhibition at 10 µM (Adrenergic α1B) was -15%, the inhibition at 10 µM (Adrenergic α1D) was 7% and the inhibition at 10 µM (Adrenergic α2A) was 14%. For the same molecule, the inhibition at 10 µM (Adrenergic β1) was 4%, the inhibition at 10 µM (Adrenergic β2) was 12% and the inhibition at 10 µM (Bradykinin B1) was -3%. The inhibition at 10 µM (Bradykinin B2) was -27%, the inhibition at 10 µM (Cannabinoid CB1) was 20% and the inhibition at 10 µM (Dopamine D1) was 30%. It also gave an inhibition at 10 µM (Dopamine D2S) of 12%, an inhibition at 10 µM (Dopamine D3) of 23% and an inhibition at 10 µM (Dopamine D4.4) of -15%. It also gave an inhibition at 10 µM (Endothelin ETA) of 11%, an inhibition at 10 µM (Endothelin ETB) of 0% and an inhibition at 10 µM (Estrogen ERα) of 6%. The inhibition at 10 µM (Histamine H1) was 42%, the inhibition at 10 µM (Histamine H3) was 0% and the inhibition at 10 µM (Interleukin IL-1 R1) was 19%. It also gave an inhibition at 10 µM [5] of 25%, an inhibition at 10 µM (Melatonin MT1) of -3% and an inhibition at 10 µM (Muscarinic M1) of 0%. For the same molecule, the inhibition at 10 µM (Muscarinic M2) was 7%, the inhibition at 10 µM (Muscarinic M3) was 9% and the inhibition at 10 µM (Neuropeptide Y Y1) was -6%. It also gave an inhibition at 10 µM (Neuropeptide Y Y2) of -11%, an inhibition at 10 µM [6] of 0% and an inhibition at 10 µM [7] of -1%. It also gave an inhibition at 10 µM (Opiate µ (OP3, MOP)) of 9%, an inhibition at 10 µM (Opiate δ1 (OP1, DOP)) of 7% and an inhibition at 10 µM (Opiate κ (OP2, KOP)) of 0%. The inhibition at 10 µM (Potassium Channel hERG) was 25%, the inhibition at 10 µM (Prostanoid EP4) was 34% and the inhibition at 10 µM [8] was -42%. The inhibition at 10 µM [9] was -5%, the inhibition at 10 µM (Sigma σ1) was 33% and the inhibition at 10 µM (Tachykinin NK1) was -2%. The inhibition at 10 µM [10] was 13%.
